We go through 7 compounds from ChEMBL document CHEMBL5365456, “Isolation and biological activity of natural chalcones based on antibacterial mechanism classification” (Bioorg Med Chem, 2023).

Converted amounts (≈) assume the structure as drawn.

The nature of series [1]: Inhibition of Micrococcus luteus IFO 3333 membrane NADH oxidase by absorbance based assay. Format: cell membranes.
The subject of series [2] is Staphylococcus aureus. The experiment in a line: Antibacterial activity against Staphylococcus aureus IFO 3007 assessed bacterial growth inhibition by two-fold serial broth dilution method. Format: functional.
A short description of series [3]: Inhibition of Escherichia coli HUT 215 membrane NADH oxidase by absorbance based assay. Format: cell membranes.
Another series has as its system Bacillus subtilis. The experiment in a line: Antibacterial activity against Bacillus subtilis IFO 3060 assessed bacterial growth inhibition by two-fold serial broth dilution method. Format: functional.
Another series has as its system Micrococcus luteus. The experiment in a line: Antibacterial activity against Micrococcus luteus IFO 3333 assessed bacterial growth inhibition by two-fold serial broth dilution method. Format: functional. On the technique in general: Broth dilution looks for growth in wells or tubes with falling amounts of substance.
Series [4] can be described thus: Inhibition of Staphylococcus aureus IFO 3007 membrane NADH oxidase by absorbance based assay. Format: cell membranes.
The subject of another series is Pseudomonas aeruginosa. The experiment in a line: Antibacterial activity against Pseudomonas aeruginosa JCM 2776 assessed bacterial growth inhibition by two-fold serial broth dilution method. Format: functional.
Series [5] deals with Escherichia coli. The experiment in a line: Antibacterial activity against Escherichia coli HUT 215 assessed bacterial growth inhibition by two-fold serial broth dilution method. Format: functional.
The nature of series [6]: Inhibition of Micrococcus luteus IFO 3333 membrane NADH-cytochrome c reductase by absorbance based assay. Format: cell membranes.
The nature of series [7]: Inhibition of Pseudomonas aeruginosa JCM 2776 membrane NADH oxidase by absorbance based assay. Format: cell membranes.
Series [8] has as its system Staphylococcus aureus. Briefly: Antibacterial activity against Staphylococcus aureus MSSA1 assessed bacterial growth inhibition by CLSI-based broth microdilution method. Format: functional.
Series [9] is described as follows: Haemolytic activity in rabbit Erythrocyte infected with Staphylococcus aureus ATCC 10832 assessed as inhibition of alpha-toxin production at 0.125 ug/ml incubated for 20 mins. Format: toxicity, cell-based, Oryctolagus cuniculus. The conditions noted are these: at 0.125 µg/mL.
Series [10] in a line: Haemolytic activity in rabbit Erythrocyte infected with Staphylococcus aureus ATCC 29213 assessed as inhibition of alpha-toxin production at 0.125 ug/ml incubated for 20 mins. Format: toxicity, cell-based, Oryctolagus cuniculus. The following applies: at 0.125 µg/mL.
Series [11] concerns Staphylococcus aureus. Briefly: Antibacterial activity against Staphylococcus aureus ATCC 10832 assessed as bacterial growth inhibition incubated for 24 hrs by CLSI-based broth microdilution assay. Format: functional.
Series [12] has as its system Staphylococcus aureus. The experiment in a line: Antibacterial activity against Staphylococcus aureus ATCC 29213 assessed as bacterial growth inhibition incubated for 24 hrs by CLSI-based broth microdilution assay. Format: functional.
The nature of series [13]: Inhibition of His-tagged Escherichia coli ANS1 Fab1 using trans-2-octanoyl-N-acetylcysteamine as substrate by spectrometric analysis.
The test system of series [14] is Escherichia coli. The experiment in a line: Antibacterial activity against Escherichia coli ANS1 assessed as bacterial growth inhibition incubated for 20 hrs by broth microdilution method. Format: functional.
The nature of series [15]: Inhibition of FAS2 in Mycobacterium smegmatis mc2 155 transfected with pVV16 vector by BCA assay. On the set-up: species or system Mycolicibacterium smegmatis.
A short description of series [16]: Inhibition of FAS2 in Mycobacterium smegmatis mc2 155 transfected with pVV16 vector expressing Rv0636 by BCA assay. Set-up: species or system Mycolicibacterium smegmatis.
Series [17] can be described thus: Inhibition of His-tagged Escherichia coli ANS1 FabG using acetoacetyl-CoA as substrate by spectrometric analysis.
Series [18] concerns Staphylococcus aureus. Briefly: Antibacterial activity against methicillin-Resistant Staphylococcus aureus 2985 assessed as bacterial growth inhibition by CLSI-based broth microdilution method. Format: functional.
Series [19] deals with Candida albicans. Briefly: Inhibition of Candida albicans LAM-1 hyphal transition at 100 ug/ml incubated upto 4 hrs relative to control. Format: functional.
Series [20] relates to Staphylococcus aureus. The experiment in a line: Antibacterial activity against Staphylococcus aureus ATCC 29213 assessed as bacterial growth inhibition incubated for 24 hrs by CLSI-based assay. Format: functional.
Series [21] concerns Enterococcus faecalis. Briefly: Antibacterial activity against Enterococcus faecalis 16C51 assessed as bacterial growth inhibition by CLSI based broth microdilution assay. Format: functional.
Series [22] in a line: Hemolytic activity in human RBC infected with Streptococcus suis 05ZYH33 at 1.5 ug/ml measured after 1 hr by microplate reader method. The following applies: erythrocyte, at 1.5 µg/mL. Format: toxicity, cell-based.
Series [23] has as its system Staphylococcus aureus. Briefly: Antibiofilm activity against Staphylococcus aureus ATCC 29213 at 128 ug/ml relative to control. Format: functional.
Series [24] deals with Enterococcus faecalis. Briefly: Antibiofilm activity against Enterococcus faecalis 16C106 at 2.115 ug/ml incubated for 24 hrs by crystal violet staining based assay relative to control. Format: functional.
For series [25], the system named is Enterococcus faecalis. Briefly: Antibiofilm activity against Enterococcus faecalis 16C51 at 2.115 ug/ml incubated for 24 hrs by crystal violet staining based assay relative to control. Format: functional.
The subject of series [26] is Candida albicans. The experiment in a line: Antifungal activity against Candida albicans ATCC 28366 assessed as fungal growth inhibition incubated for 24 hrs. Format: functional.
Series [27] can be described thus: Hemolytic activity in human RBC infected with Streptococcus suis 05ZYH33 at 2 ug/ml measured after 1 hr by microplate reader method. The conditions noted are these: erythrocyte, at 2 µg/mL. Format: toxicity, cell-based.
In series [28] the test system is Candida albicans. The experiment in a line: Antibiofilm activity against Candida albicans ATCC 28366 at 0.2 ug/ml incubated for 24 hrs by crystal violet staining based assay relative to control. Format: functional.
Series [29] concerns Staphylococcus aureus. Briefly: Antibacterial activity against Staphylococcus aureus ATCC 29213 assessed bacterial growth inhibition by CLSI-based broth microdilution method. Format: functional.
A short description of series [30]: Haemolytic activity in rabbit Erythrocyte infected with methicillin-Resistant Staphylococcus aureus 2985 assessed as inhibition of alpha-toxin production at 2 ug/ml incubated for 15 mins. Format: toxicity, cell-based, Oryctolagus cuniculus. The conditions noted are these: 0.25 h, at 2 µg/mL.
The subject of series [31] is Enterococcus faecalis. The experiment in a line: Antibacterial activity against Enterococcus faecalis 16C106 assessed as bacterial growth inhibition by CLSI based broth microdilution assay. Format: functional.
The subject of series [32] is Streptococcus suis. Briefly: Antibiofilm activity against Streptococcus suis 05ZYH33 assessed as inhibition of biofilm formation at 4 ug/ml incubated for 18 to 24 hrs by crystal violet staining based assay relative to control. Format: functional. The following applies: time 18-24 hrs.
The subject of series [33] is Candida albicans. Briefly: Inhibition of Candida albicans ATCC 28366 hyphal transition at 100 ug/ml incubated upto 4 hrs relative to control. Format: functional.
The subject of series [34] is Streptococcus suis. The experiment in a line: Antibacterial activity against Streptococcus suis 05ZYH33 assessed as bacterial growth inhibition incubated for 24 hrs. Format: functional.
The subject of series [35] is Candida albicans. The experiment in a line: Antibiofilm activity against Candida albicans ATCC 28366 at 2 ug/ml incubated for 24 hrs by crystal violet staining based assay relative to control. Format: functional.
Series [36] concerns Enterococcus faecalis. Briefly: Antibiofilm activity against Enterococcus faecalis 16C106 at 4.23 ug/ml incubated for 24 hrs by crystal violet staining based assay relative to control. Format: functional.
Series [37] can be described thus: Haemolytic activity in rabbit Erythrocyte infected with Staphylococcus aureus ATCC 29213 assessed as inhibition of alpha-toxin production at 2 ug/ml incubated for 15 mins. Format: toxicity, cell-based, Oryctolagus cuniculus. The conditions noted are these: 0.25 h, at 2 µg/mL.
The next series has as its system Rhizomucor pusillus. The experiment in a line: Antibacterial activity against Rhizomucor pusillus HUT 1185 assessed bacterial growth inhibition by two-fold serial broth dilution method. Format: functional.
Series [38] relates to Staphylococcus aureus. Briefly: Antibacterial activity against methicillin-Sensitive Staphylococcus aureus ATCC 29213 assessed as bacterial growth inhibition by CLSI-based broth microdilution method. Format: functional.
The subject of series [39] is Candida albicans. Briefly: Antibiofilm activity against Candida albicans LAM-1 at 0.2 ug/ml incubated for 24 hrs by crystal violet staining based assay. Format: functional.
Series [40] has as its system Enterococcus faecalis. Briefly: Antibiofilm activity against Enterococcus faecalis 16C51 at 4.23 ug/ml incubated for 24 hrs by crystal violet staining based assay relative to control. Format: functional.
Series [41] relates to Staphylococcus aureus. The experiment in a line: Antibiofilm activity against Staphylococcus aureus ATCC 29213 at 16 ug/ml relative to control. Format: functional.
For series [42], the system named is Candida albicans. Briefly: Antifungal activity against Candida albicans LAM-1 assessed as fungal growth inhibition incubated for 24 hrs. Format: functional.
For series [43], the system named is Streptococcus suis. The experiment in a line: Antibiofilm activity against Streptococcus suis 05ZYH33 assessed as inhibition of biofilm formation at 3 ug/ml incubated for 18 to 24 hrs by crystal violet staining based assay relative to control. Format: functional. The following applies: time 18-24 hrs.
In series [44] the test system is Candida albicans. Briefly: Antibiofilm activity against Candida albicans LAM-1 at 2 ug/ml incubated for 24 hrs by crystal violet staining based assay relative to control. Format: functional.

What is called IC50 is the concentration that inhibits the measured activity by half. As usually defined, the MIC is the least concentration at which growth counts as inhibited. A word on the inhibition: it is the share of the control response that was lost under treatment.

As to `COc1c(/C=C/C(=O)c2ccc(O)cc2)ccc(O)c1CC=C(C)C`, the IC50 came to 3 µM in [1]; 7.4 µM in series [3]; 23.4 µM in [4]; 29.6 µM in series [6]; 13.9 µM in series [7]. Further, the MIC against Staphylococcus aureus [2] was 6.25 µg/mL (≈ 18.5 µM); in the series with Bacillus subtilis, 12.5 µg/mL (≈ 36.9 µM); against Micrococcus luteus it was 6.25 µg/mL (≈ 18.5 µM); in the series with Pseudomonas aeruginosa, more than 100 µg/mL; with Escherichia coli [5], more than 100 µg/mL.
`COc1c(/C=C/C(=O)c2ccc(O)cc2)ccc(O)c1O`: the results for the MIC against Staphylococcus aureus [2], with Bacillus subtilis and with Micrococcus luteus were 100 µg/mL (≈ 349 µM), 10 µg/mL (≈ 34.9 µM) and 50 µg/mL (≈ 175 µM), respectively.
Turning to `CC1(C)C=Cc2c(ccc(C(=O)/C=C/c3ccc(O)cc3)c2O)O1`, the MIC in the series with Staphylococcus aureus [8] worked out at 4 µg/mL (≈ 12.4 µM).
In the case of `C=C(C)[C@@H](C)c1cc(/C=C/C(=O)c2ccc(O)cc2)c(OC)cc1O`, the “inhibition (INH)” value in series [9] stood at 58%; in series [10] it was 33%. Also, the minimum inhibitory concentration (MIC) in the series on Staphylococcus aureus [11] and in the series with Staphylococcus aureus [12] was 2 µg/mL (≈ 5.91 µM) in each case.
Turning to `O=C(/C=C/c1ccc(O)c(O)c1)c1ccc(O)cc1O` [BUTEIN], the half-maximal inhibitory concentration (IC50) in series [13] was 30 µM; in [15], 22 µg/mL (≈ 80.8 µM); in series [16], 30 µg/mL (≈ 110 µM); in series [17] it was 10 µM. Further, the MIC in the series on Escherichia coli [14] was 32 µM (≈ 8.71 µg/mL).
`C=CC(C)(C)c1cc(/C=C/C(=O)c2ccc(O)cc2)c(OC)cc1O` [LICOAGROCHACONE A]: the minimal inhibitory concentration (MIC) in the series on Staphylococcus aureus [18] came to 4 µg/mL (≈ 11.8 µM); in the series on Staphylococcus aureus [20], 2 µg/mL (≈ 5.91 µM); in the series with Enterococcus faecalis [21], 8.46 µg/mL (≈ 25 µM); in the series on Candida albicans [26], 6.25 µg/mL (≈ 18.5 µM); against Staphylococcus aureus [29], 4 µg/mL (≈ 11.8 µM); with Staphylococcus aureus [2] it was 1.56 µg/mL (≈ 4.61 µM). The minimum inhibitory concentration (MIC) turned out to be 8.46 µg/mL (≈ 25 µM) in the series with Enterococcus faecalis [31]; 3.13 µg/mL (≈ 9.25 µM) against Bacillus subtilis; 1.56 µg/mL (≈ 4.61 µM) with Micrococcus luteus; 4 µg/mL (≈ 11.8 µM) with Streptococcus suis [34]; 12.5 µg/mL (≈ 36.9 µM) against Rhizomucor pusillus; 4 µg/mL (≈ 11.8 µM) in the series on Staphylococcus aureus [38]. In addition, the MIC is more than 100 µg/mL in the series on Pseudomonas aeruginosa, more than 100 µg/mL in the series with Escherichia coli [5] and 12.5 µg/mL (≈ 36.9 µM) in the series with Candida albicans [42]. In addition, the inhibition at 100 µg/mL with Candida albicans [19] was determined as 79%; in the series with Candida albicans [33], 100%. The half-maximal inhibitory concentration (IC50) came out at 6.2 µM in series [1]; 9.5 µM in series [3]; 8 µM in series [4]; 14.8 µM in [6]; 18.9 µM in series [7]. Moreover, the “inhibition (INH)” value stood at 63% in series [22], 81% in series [27], 93% in [30] and 95% in [37]. For the same compound, at 128 µg/mL the inhibition in the series on Staphylococcus aureus [23] was 60%. Also, the inhibition at 2.115 µg/mL with Enterococcus faecalis [24] and in the series with Enterococcus faecalis [25] was 50% in each case. For the same compound, the inhibition at 0.2 µg/mL with Candida albicans [28] came to 59%; with Candida albicans [39], 35%. Also, the inhibition at 4 µg/mL in the series with Streptococcus suis [32] worked out at 60%. In addition, the inhibition at 2 µg/mL with Candida albicans [35] worked out at 81%; in the series on Candida albicans [44], 76%. Moreover, the results for the inhibition at 4.23 µg/mL in the series with Enterococcus faecalis [36] and with Enterococcus faecalis [40] were 85% and 80%, respectively. In the series with Staphylococcus aureus [41], this compound registered an inhibition at 16 µg/mL of 60%. In addition, the inhibition at 3 µg/mL in the series with Streptococcus suis [43] worked out at 30%.
With `COc1c(/C=C/C(=O)c2ccc(O)c(CC=C(C)C)c2)ccc(O)c1O` [LICOCHALCONE D], the MIC against Staphylococcus aureus [2], with Bacillus subtilis and in the series with Micrococcus luteus was 50 µg/mL (≈ 141 µM) each time.
